Measurements published in patent publication US20210094971A1, “HETEROCYCLIC COMPOUNDS” (Hoffmann-La Roche Inc., priority 2019, published 2021).

Molecular target: T1, MAGL (Homo sapiens, UniProt Q99685)
T1 sequence (Q99685 1-303): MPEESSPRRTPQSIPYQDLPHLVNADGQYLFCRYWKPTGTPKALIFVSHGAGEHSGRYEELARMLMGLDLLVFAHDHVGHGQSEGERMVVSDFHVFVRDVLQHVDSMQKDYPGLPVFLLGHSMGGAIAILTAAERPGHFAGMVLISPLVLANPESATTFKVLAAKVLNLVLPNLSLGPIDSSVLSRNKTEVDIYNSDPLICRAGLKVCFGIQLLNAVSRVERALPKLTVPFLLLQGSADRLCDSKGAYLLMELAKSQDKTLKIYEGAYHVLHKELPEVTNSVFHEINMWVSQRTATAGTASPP
Experiment: 2-AG assay (MAGL inhibitory activity, hydrolysis of 2-arachidonoylglycerol followed by mass spectrometry)
Assay type: biochemical
Details: 50 pM MAGL, 8 μM 2-arachidonoylglycerol, 15 min pre-incubation, 30 min incubation at RT
Protocol: Compounds were profiled for MAGL inhibitory activity by determining the enzymatic activity by following the hydrolysis of the natural substrate 2-arachidonoylglycerol resulting in arachidonic acid, which can be followed by mass spectrometry. This assay is hereinafter abbreviated “2-AG assay”.
The 2-AG assay was carried out in 384 well assay plates (PP, Greiner Cat# 784201) in a total volume of 20 μL. Compound dilutions were made in 100% DMSO (VWR Chemicals 23500.297) in a polypropylene plate in 3-fold dilution steps to give a final concentration range in the assay from 12.5 μM to 0.8 pM. 0.25 μL compound dilutions (100% DMSO) were added to 9 μL MAGL in assay buffer (50 mM TRIS (GIBCO, 15567-027), 1 mM EDTA (Fluka, 03690-100 ml), 0.01% (v/v) Tween. After shaking, the plate was incubated for 15 min at RT. To start the reaction, 10 μL 2-arachidonoylglycerol in assay buffer was added. The final concentrations in the assay was 50 pM MAGL and 8 μM 2-arachidonoylglyerol. After shaking and 30 min incubation at RT, the reaction was quenched by the addition of 40 μL of acetonitrile containing 4 μM of d8-arachidonic acid. The amount of arachidonic acid was traced by an online SPE system (Agilent Rapidfire) coupled to a triple quadrupole mass spectrometer (Agilent 6460). A C18 SPE cartridge (G9205A) was used in an acetonitrile/water liquid setup. The mass spectrometer was operated in negative electrospray mode following the mass transitions 303.1→259.1 for arachidonic acid and 311.1→267.0 for d8-arachidonic acid. The activity of the compounds was calculated based on the ratio of intensities [arachidonic acid/d8-arachidonic acid].

In the case of `O=C1CO[C@H]2CCN(C(=O)N3C[C@H]4C[C@@H]3[C@H](OCc3ccc(C(F)(F)F)cc3F)C4)C[C@H]2N1` (relative stereo) [Example 19, (4aR,8aS)-6-[rel-(1R,4S,6R)-6-[[2-fluoro-4-(trifluoromethyl)phenyl]methoxy]-2-azabicyclo[2.2.1]heptane-2-carbonyl]-4,4a,5,7,8,8a-hexahydropyrido[4,3-b][1,4]oxazin-3-one], the IC50 is reported as 1140 nM.
In the case of `O=C1CO[C@H]2CCN(C(=O)N3C[C@@H]4[C@H](C3)[C@H]4c3ccn(-c4ccc(F)cc4)n3)C[C@H]2N1` [Example 6, (4aR,8aS)-6-[(1R,5S,6r)-6-[1-(4-fluorophenyl)pyrazol-3-yl]-3-azabicyclo[3.1.0]hexane-3-carbonyl]-4,4a,5,7,8,8a-hexahydropyrido[4,3-b][l,4]oxazin-3-one], the IC50 is reported as 261 nM.
Compound `O=C1CO[C@H]2CCN(C(=O)N3C4CCC3CC(COc3ccc(F)cc3Cl)C4)C[C@H]2N1` (stereo partly drawn) [Example 26, (4aR,8aS)-6-[3-[(2-chloro-4-fluoro-phenoxy)methyl]-8-azabicyclo[3.2.1]octane-8-carbonyl]-4,4a,5,7,8,8a-hexahydropyrido[4,3-b][1,4]oxazin-3-one] has an IC50 of 3690 nM.
With `O=C1CO[C@@H]2CCN(C(=O)N3CC4CCC(C3)C4COc3ccc(F)cc3Cl)C[C@@H]2N1` (stereo partly drawn) [Example 27, (4aS,8aR)-6-[8-[(2-chloro-4-fluoro-phenox)methyl]-3-azabicyclo[3.2.1]octane-3-carbonyl]-4,4a,5,7,8,8a-hexahydropyrido[4,3-b][1,4]oxazin-3-one] the IC50 was 670 nM.
`O=C1CO[C@H]2CCN(C(=O)N3[C@@H]4CC[C@H]3C[C@H](OCc3ccc(C(F)(F)F)cc3F)C4)C[C@H]2N1` [Example 24, (4aR,8aS)-6-[(1S,5R)-3-[[2-fluoro-4-(trifluoromethyl)phenyl]methoxy]-8-azabicyclo[3.2.1]octane-8-carbonyl]-4,4a,5,7,8,8a-hexahydropyrido[4,3-b][1,4]oxazin-3-one] gave an IC50 of 1.4 nM.
`O=C1CO[C@H]2CCN(C(=O)N3[C@@H]4COC[C@H]3C[C@@H](OCc3ccc(C(F)(F)F)cc3F)C4)C[C@H]2N1` [Example 23, (4aR,8aS)-6-[(1S,5R)-7-[[2-fluoro-4-(trifluoromethyl)phenyl]methoxy]-3-oxa-9-azabicyclo[3.3.1]nonane-9-carbonyl]-4,4a,5,7,8,8a-hexahydropyrido[4,3-b][1,4]oxazin-3-one] showed an IC50 of 628 nM.
`O=C1CO[C@H]2CCN(C(=O)N3C[C@@H]4[C@@H](COc5ccc(C(F)(F)F)cc5F)[C@@H]4C3)C[C@H]2N1` [Example 25, (4aR,8aS)-6-[(1R,5S,6r)-6-[[2-fluoro-4-(trifluoromethyl)phenoxy]methyl]-3-azabicyclo[3.1.0]hexane-3-carbonyl]-4,4a,5,7,8,8a-hexahydropyrido[4,3-b][1,4]oxazin-3-one] was tested, and the IC50 was 32 nM.
`Cc1ccccc1OC1CC2CN(C(=O)N3CC[C@@H]4OCC(=O)N[C@@H]4C3)CC2C1` (stereo partly drawn) [Example 2, (4aR,8aS)-6-(5-(2-methylphenoxy)-3,3a,4,5,6,6a-hexahydro-1H-cyclopenta[c]pyrrole-2-carbonyl)-4,4a,5,7,8,8a-hexahydropyrido[4,3-b][1,4]oxazin-3-one] gave an IC50 of 19.8 nM.
Compound `O=C1CO[C@H]2CCN(C(=O)N3CC4CC(OCc5ccc(C(F)(F)F)cc5F)CC4C3)C[C@H]2N1` (stereo partly drawn) [Example 16, (4aR,8aS)-6-[5-[[2-fluoro-4-(trifluoromethyl)phenyl]methoxy]-3,3a,4,5,6,6a-hexahydro-1H-cyclopenta[c]pyrrole-2-carbonyl]-4,4a,5,7,8,8a-hexahydropyrido[4,3-b][1,4]oxazin-3-one] has an IC50 of 85.9 nM.
`O=C1CO[C@H]2CCN(C(=O)N3CC4CC(Oc5ccccc5Cl)CC4C3)C[C@H]2N1` (stereo partly drawn) [Example 1, (4aR,8aS)-6-(5-(2-chlorophenoxy)-3,3a,4,5,6,6a-hexahydro-1H-cyclopenta[c]pyrrole-2-carbonyl)-4,4a,5,7,8,8a-hexahydropyrido[4,3-b][1,4]oxazin-3-one] showed an IC50 of 8.9 nM.
`O=C1CO[C@H]2CCN(C(=O)N3CC4CN(S(=O)(=O)c5ccc(C(F)(F)F)cc5)CC4C3)C[C@H]2N1` (stereo partly drawn) [Example 4, (4aR,8aS)-6-(5-[4-(trifluoromethyl)phenyl]sulfonyl-1,3,3a,4,6,6a-hexahydropyrrolo[3,4-c]pyrrole-2-carbonyl)-4,4a,5,7,8,8a-hexahydropyrido[4,3-b][1,4]oxazin-3-one] was tested, and the IC50 was 929 nM.
Work on `O=C1CO[C@H]2CCN(C(=O)N3C[C@@H]4[C@H](C3)[C@H]4c3ccn(-c4ccc(F)cc4Cl)n3)C[C@H]2N1` [Example 8, (4aR,8aS)-6-[(1R,5S,6r)-6-[1-(2-chloro-4-fluoro-phenyl)pyrazol-3-yl]-3-azabicyclo[3.1.0]hexane-3-carbonyl]-4,4a,5,7,8,8a-hexahydropyrido[4,3-b][1,4]oxazin-3-one] yielded an IC50 of 112 nM.
`O=C1CO[C@H]2CCN(C(=O)N3CC4CN(S(=O)(=O)c5ccccc5)CC4C3)C[C@H]2N1` (stereo partly drawn) [Example 3, (4aR,8aS)-6-(5-(benzenesulfonyl)-1,3,3a,4,6,6a-hexahydropyrrolo[3,4-c]pyrrole-2-carbonyl)-4,4a,5,7,8,8a-hexahydropyrido[4,3-b][1,4]oxazin-3-one] was tested, and the IC50 was 2280 nM.
For `O=C1CO[C@H]2CCN(C(=O)N3CC4CN(S(=O)(=O)c5ccc(F)cc5Cl)CC4C3)C[C@H]2N1` (stereo partly drawn) [Example 5, (4aR,8aS)-6-(5-(2-chloro-4-fluoro-phenyl)sulfonyl-1,3,3a,4,6,6a-hexahydropyrrolo[3,4-c]pyrrole-2-carbonyl)-4,4a,5,7,8,8a-hexahydropyrido[4,3-b][1,4]oxazin-3-one], the IC50 was 676 nM.
`O=C1CO[C@H]2CCN(C(=O)N3CC4CCC(C3)C4COc3ccc(F)cc3Cl)C[C@H]2N1` (stereo partly drawn) [Example 13, (4aR,8aS)-6-[8-[(2-chloro-4-fluoro-phenoxy)methyl]-3-azabicyclo[3.2.1]octane-3-carbonyl]-4,4a,5,7,8,8a-hexahydropyrido[4,3-b][1,4]oxazin-3-one] was tested, and the IC50 was 5.1 nM.
With `O=C1CO[C@H]2CCN(C(=O)N3CC4CC(Oc5ccc(C(F)(F)F)cc5F)CC4C3)C[C@H]2N1` (stereo partly drawn) [Example 17, (4aR,8aS)-6-[5-[2-fluoro-4-(trifluoromethyl)phenoxy]-3,3a,4,5,6,6a-hexahydro-1H-cyclopenta[c]pyrrole-2-carbonyl]-4,4a,5,7,8,8a-hexahydropyrido[4,3-b][1,4]oxazin-3-one] the IC50 was 4.7 nM.
With “(4aR,8aS)-6-[rel-(1R,4R,5S)-5- [[2-fluoro-4- (trifluoromethyl)phenyl]methoxy]- 2-azabicyclo[2.2.1]heptane-2- carbonyl]-4,4a,5,7,8,8a- hexahydropyrido[4,3- b][1,4]oxazin-3-one [Example 21]” the IC50 was 18.6 nM.
